Data published in patent US20250320206A1, “STAT6 DEGRADERS” (Gilead Sciences, Inc., priority 2024, published 2025).

Legend:
[1] = target: T1, STAT6 (Homo sapiens, UniProt P42226); test: Stat6 Degrader Assay (HiBiT based, HeLa LgBiT clone 4.14); type: cell-based; details: HeLa LgBiT clone 4.14 HiBiT-STAT6, 4-24 h incubation; values given for compounds with >80% Emax; geometric mean; read-out: STAT6 degradation DC50
T1 construct: These cells express endogenous STAT6; host or cells: HeLa LgBiT clone 4.14
T1 sequence (P42226 1-847): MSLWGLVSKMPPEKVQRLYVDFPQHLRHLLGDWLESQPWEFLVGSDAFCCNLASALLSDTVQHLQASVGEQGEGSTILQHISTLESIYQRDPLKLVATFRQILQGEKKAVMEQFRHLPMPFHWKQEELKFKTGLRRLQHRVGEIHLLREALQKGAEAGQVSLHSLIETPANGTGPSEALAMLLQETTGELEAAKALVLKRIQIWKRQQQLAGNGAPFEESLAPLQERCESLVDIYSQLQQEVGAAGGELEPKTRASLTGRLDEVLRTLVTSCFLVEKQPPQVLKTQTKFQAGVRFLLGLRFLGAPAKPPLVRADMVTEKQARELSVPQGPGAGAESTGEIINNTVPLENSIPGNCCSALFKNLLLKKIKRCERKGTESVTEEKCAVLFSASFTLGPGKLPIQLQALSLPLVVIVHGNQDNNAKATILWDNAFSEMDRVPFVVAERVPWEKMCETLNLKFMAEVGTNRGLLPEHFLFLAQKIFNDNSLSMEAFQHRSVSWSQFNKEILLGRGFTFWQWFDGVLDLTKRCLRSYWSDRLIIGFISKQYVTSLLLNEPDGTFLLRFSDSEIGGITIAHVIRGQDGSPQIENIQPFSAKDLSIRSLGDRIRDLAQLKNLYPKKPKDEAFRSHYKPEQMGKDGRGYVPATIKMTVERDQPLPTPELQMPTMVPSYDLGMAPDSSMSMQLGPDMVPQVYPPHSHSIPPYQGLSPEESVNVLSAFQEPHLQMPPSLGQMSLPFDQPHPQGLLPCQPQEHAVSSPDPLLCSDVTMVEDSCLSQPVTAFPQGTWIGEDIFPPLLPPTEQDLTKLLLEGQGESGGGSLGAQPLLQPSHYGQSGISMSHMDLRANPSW
In short: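 Luminescence from HiBiT-STAT6 complementing stably expressed LgBiT in HeLa clone 4.14 reports remaining STAT6 protein. Cells (5000/well) exposed to compound for 4-24 h at 37° C; read 0.5 h after Nano-Glo addition. 100% degradation window set with 50 μM terfenadine; percent degradation plotted against concentration.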

[2] = system: Eotaxin-3 release in human whole blood stimulated with IL-4; test: Human Whole Blood Eotaxin-3 Assay (IL-4 stimulated eotaxin-3 release); type: cell-based; details: IL-4 stimulation, 48 h, values given for compounds with >80% Emax, geometric mean
In short: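 Eotaxin-3 (CCL26) release measured by MSD kit in plasma supernatant after 48 h IL-4 stimulation ([…]) of human whole blood. Compounds added in triplicate 4-fold dilutions 2 h before stimulation; 0.5% DMSO final, 37° C, 5% CO2.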

DC50 [1] [nM] | EC50 [2] [nM] | Structure (SMILES)
0.1 | 0.3 | CNc1ccn(-c2ccnc3c2cc(CN2CCC(c4c(F)cc(C(=O)N(C)c5ccc(C6CCN(Cc7ccc8c(c7)n(C)c(=O)n8C7CCC(=O)NC7=O)CC6)cc5)cc4F)CC2)n3C)c(=O)c1 (stereo not shown) [Example 3u244, N-(4-(1-((1-(2,6-dioxopiperidin-3-yl)-3-methyl-2-oxo-2,3-dihydro-1H-benzo[d]imidazol-5-yl)methyl)piperidin-4-yl)phenyl)-3,5-difluoro-N-methyl-4-(1-((1-methyl-4-(4-(methylamino)-2-oxopyridin-1 (2H)-yl)-1H-pyrrolo[2,3-b]pyridin-2-yl)methyl)piperidin-4-yl)benzamide]
0.5 | 0.5 | CNc1ccn(-c2ccnc3c2cc([C@H](C)N2CCC(c4ccc(C(=O)N5CCC(CN6CCN(Cc7ccc8c(c7)n(C)c(=O)n8C7CCC(=O)NC7=O)C[C@@H]6C)CC5)cc4)CC2)n3C)c(=O)c1 (stereo partly drawn) [Example 3e39, 3-(3-methyl-5-(((S)-3-methyl-4-((1-(4-(1-((S)-1-(1-methyl-4-(4-(methylamino)-2-oxopyridin-1 (2H)-yl)-1H-pyrrolo[2,3-b]pyridin-2-yl)ethyl)piperidin-4-yl)benzoyl)piperidin-4-yl)methyl)piperazin-1-yl)methyl)-2-oxo-2,3-dihydro-1H-benzo[d]imidazol-1-yl)piperidine-2,6-dione]
2.5 | 4.6 | CNc1ccn(-c2ccnc3c2cc(CN2CCC(c4c(F)cc(C(=O)N5CCC(CN6CCN(Cc7ccc8c(c7)C(C)(C)C(=O)N8C7CCC(=O)NC7=O)C[C@@H]6C)CC5)cc4F)CC2)n3C)c(=O)c1 (stereo partly drawn) [Example 3u204, 3-(5-(((S)-4-((1-(3,5-difluoro-4-(1-((1-methyl-4-(4-(methylamino)-2-oxopyridin-1 (2H)-yl)-1H-pyrrolo[2,3-b]pyridin-2-yl)methyl)piperidin-4-yl)benzoyl)piperidin-4-yl)methyl)-3-methyl-piperazin-1-yl)methyl)-3,3-dimethyl-2-oxoindolin-1-yl)piperidine-2,6-dione]
4.5 | 18.9 | CNc1cc(=O)n(-c2ccnc3c2cc([C@H](C)N2CC=C(c4c(C)cc(C(=O)N5CCC(CN6CCN(c7ccc8c(c7)C7(CC7)C(=O)N8C7CCC(=O)NC7=O)C[C@H]6C)CC5)cc4F)CC2)n3C)cc1F (stereo partly drawn) [Example 3u295, 3-(5′-((R)-4-((1-(3-fluoro-4-(1-((S)-1-(4-(5-fluoro-4-(methylamino)-2-oxopyridin-1 (2H)-yl)-1-methyl-1H-pyrrolo[2,3-b]pyridin-2-yl)ethyl)-1,2,3,6-tetrahydropyridin-4-yl)-5-methylbenzoyl)piperidin-4-yl)methyl)-3-methylpiperazin-1-yl)-2′-oxospiro[cyclopropane-1,3′-indolin]-1′-yl)piperidine-2,6-dione]
13.2 | 13.8 | CNc1ccn(-c2ccnc3c2cc(CN2CCC(c4c(F)cc(C(=O)N5CCC(CN6CCN(Cc7cc8c(cc7F)N(C7CCC(=O)NC7=O)C(=O)C87CC7)CC6)CC5)cc4F)CC2)n3C)c(=O)c1 (stereo not shown) [Example 3u42, 3-(5′-((4-((1-(3,5-difluoro-4-(1-((1-methyl-4-(4-(methylamino)-2-oxopyridin-1 (2H)-yl)-1H-pyrrolo[2,3-b]pyridin-2-yl)methyl)piperidin-4-yl)benzoyl)piperidin-4-yl)methyl)piperazin-1-yl)methyl)-6′-fluoro-2′-oxospiro[cyclopropane-1,3′-indolin]-1′-yl)piperidine-2,6-dione]
7.5 | 0.8 | CNc1ccn(-c2ccnc3c2cc([C@H](C)N2CC=C(c4c(F)cc(C(=O)N5CCC(CN6CCN(Cc7ccc8c(c7)n(C7CC7)c(=O)n8[C@@H]7CCC(=O)NC7=O)C[C@@H]6C)CC5)cc4F)CC2)n3C)c(=O)c1 (single isomer, unassigned) [Example 3u212]
0.7 | 0.8 | Cc1cc(C(=O)N2CCC(CN3CCN(Cc4ccc5c(c4)n(C)c(=O)n5C4CCC(=O)NC4=O)CC3)CC2)cc(F)c1C1=CCN([C@@H](C)c2cc3c(-n4ccc5c(c4=O)CCN5)ccnc3n2C)CC1 (stereo partly drawn) [Example 3u22, 3-(5-((4-((1-(3-fluoro-5-methyl-4-(1-((S)-1-(1-methyl-4-(4-oxo-1,2,3,4-tetrahydro-5H-pyrrolo[3,2-c]pyridin-5-yl)-1H-pyrrolo[2,3-b]pyridin-2-yl)ethyl)-1,2,3,6-tetrahydropyridin-4-yl)-benzoyl)piperidin-4-yl)methyl)piperazin-1-yl)methyl)-3-methyl-2-oxo-2,3-dihydro-1H-benzo[d]-imidazol-1-yl)piperidine-2,6-dione]
2.5 | 2.8 | C[C@H]1CN(Cc2ccc3c(c2)n(C2CC2)c(=O)n3[C@H]2CCC(=O)NC2=O)CCN1CC1CCN(C(=O)c2cc(F)c(C3CCN(Cc4cc5c(-n6ccc7c(c6=O)CCN7)ccnc5n4C)CC3)c(F)c2)CC1 (single isomer, unassigned) [Example 3u107]
1.6 | 4.3 | CNc1cc(=O)n(-c2ccnc3c2cc([C@H](C)N2CC=C(c4c(C)cc(C(=O)N5CCC(CN6CCN(Cc7ccc8c(c7)C7(CC7)C(=O)N8C7CCC(=O)NC7=O)CC6)CC5)cc4F)CC2)n3C)cc1F (stereo partly drawn) [Example 3u66, 3-(5′-((4-((1-(3-fluoro-4-(1-((S)-1-(4-(5-fluoro-4-(methylamino)-2-oxopyridin-1 (2H)-yl)-1-methyl-1H-pyrrolo[2,3-b]pyridin-2-yl)ethyl)-1,2,3,6-tetrahydropyridin-4-yl)-5-methylbenzoyl)-piperidin-4-yl)methyl)piperazin-1-yl)methyl)-2′-oxospiro[cyclopropane-1,3′-indolin]-1′-yl)piperidine-2,6-dione]
5.3 | 1.8 | CNc1ccn(-c2ccnc3c2cc(CN2CC=C(c4c(F)cc(C(=O)N5CCC(CN6CCN(Cc7ccc8c(c7)n(C7CC7)c(=O)n8C7CCC(=O)NC7=O)C[C@@H]6C)CC5)cc4F)CC2)n3C)c(=O)c1 (stereo partly drawn) [Example 3u71, 3-(3-cyclopropyl-5-(((S)-4-((1-(3,5-difluoro-4-(1-((1-methyl-4-(4-(methylamino)-2-oxopyridin-1 (2H)-yl)-1H-pyrrolo[2,3-b]pyridin-2-yl)methyl)-1,2,3,6-tetrahydropyridin-4-yl)benzoyl)piperidin-4-yl)methyl)-3-methylpiperazin-1-yl)methyl)-2-oxo-2,3-dihydro-1H-benzo[d]imidazol-1-yl)piperidine-2,6-dione]
5.7 | 21.7 | CNc1cc(=O)n(-c2ccnc3c2cc([C@H](C)N2CC=C(c4c(C)cc(C(=O)N5CCC(CN6CCN(c7ccc8c(c7)C7(CC7)C(=O)N8[C@H]7CCC(=O)NC7=O)CC6)CC5)cc4F)CC2)n3C)cc1F (single isomer, unassigned) [Example 3u291]
0.6 | 1.4 | CNc1cc(=O)n(-c2ccnc3c2cc([C@H](C)N2CC=C(c4c(C)cc(C(=O)N5CCC(CN6CCN(Cc7ccc8c(c7)n(C)c(=O)n8[C@H]7CCC(=O)NC7=O)C[C@@H]6C)CC5)cc4F)CC2)n3C)cc1F (single isomer, unassigned) [Example 3u91]
11.4 | 25.8 | CNc1cc(=O)n(-c2ccnc3c2cc(CN2CCC(c4c(F)cc(C(=O)N5CCC(CN6CCN(Cc7ccc8c(c7)C(C)(C)C(=O)N8[C@@H]7CCC(=O)NC7=O)CC6)CC5)cc4F)CC2)n3C)cc1F (single isomer, unassigned) [Example 3u59]
1.8 | 2.6 | CNc1cc(=O)n(-c2ccnc3c2cc([C@H](C)N2CC=C(c4c(C)cc(C(=O)N5CCC(CN6CCN(c7ccc8c(c7)n(C)c(=O)n8C7CCC(=O)NC7=O)CC6)CC5)cc4F)CC2)n3C)cc1F (stereo partly drawn) [Example 3u298, 3-(5-(4-((1-(3-fluoro-4-(1-((S)-1-(4-(5-fluoro-4-(methylamino)-2-oxopyridin-1 (2H)-yl)-1-methyl-1H-pyrrolo[2,3-b]pyridin-2-yl)ethyl)-1,2,3,6-tetrahydropyridin-4-yl)-5-methylbenzoyl)-piperidin-4-yl)methyl)piperazin-1-yl)-3-methyl-2-oxo-2,3-dihydro-1H-benzo[d]imidazol-1-yl)-piperidine-2,6-dione]
